{
  "source": "patent US4289776A",
  "about": "“Xanthine derivatives” (Hoechst Aktiengesellschaft, priority 1973, dated 1981)",
  "key": {"[1]": {"system": "cerebral blood circulation", "experiment": "Cerebral blood circulation after intraduodenal administration to narcotized cats", "format": "in vivo, cat"}, "[2]": {"experiment": "Toxicity in the mouse (LD50)", "conditions": "in vivo, ip, mice, intraperitoneally, read-out: LD50 -value for mice", "description": "(§1) The toxicity was determined as LD50 --range or as LD50 according to Litchfield and Wilcoxon (\"J. Pharmacol. exp. Ther.\" 97 (1949), page 399) in the mouse."}, "mouse [3]": {"system": "mouse", "experiment": "Toxicity in the mouse (LD50)", "conditions": "in vivo, ip", "description": "as §1"}, "blood vascular system": {"system": "blood vascular system", "conditions": "known compounds; cited from earlier work"}, "cerebral blood perfusion": {"system": "cerebral blood perfusion", "experiment": "Cerebral blood perfusion by fluvography at the cat (i.v.)", "format": "in vivo", "description": "(§2) Animal tests were carried out with various oxoalkylxanthine derivatives, in which the toxicity in the mouse, the increase of cerebral and muscular blood perfusion at the cat and the fibrinolytic effect in vitro in the Hanging-Clot-test were measured. Furthermore the broncholytic effect of various compounds was tested.\n(§3) 1. Cerebral and muscular blood perfusion by fluvography\n(§4) These tests were performed at the cat according to K. Popendiker, I. Boksay and V. Bollmann (\"Arzneimittel Forschung\" vol. 21 (1971), page 1160).\n(§5) The values obtained in the mentioned test 1 are given as Δλ and as half-life values in Table 2 and the results of tests 2 to 5 are enumerated in Table 3. In Table 2 Δλ is the change of blood perfusion."}, "[4]": {"system": "bronchospasm against histamine", "experiment": "Broncholytic effect at the narcotized guinea-pig, bronchospasm by histamine", "format": "in vivo", "conditions": "Cavia porcellus, iv, 2 min, 2 min. i.p.", "description": "(§6) 2. Broncholytic effect at the narcotized guinea-pig\n(§7) This test was performed according to H. Konsett and R. Rossler (\"Archiv exp. Path. Pharmak.\" vol. 195 (1940), page 71)."}, "muscular blood perfusion": {"system": "muscular blood perfusion", "experiment": "Muscular blood perfusion by fluvography at the cat (i.v.)", "format": "in vivo", "description": "as §2, §3, §4, §5"}, "human blood": {"system": "human blood", "experiment": "Fibrinolytic effect in vitro, Hanging-Clot-test", "format": "biochemical", "conditions": "human blood", "description": "This effect was measured by the Hanging-Clot-test according to K. N. von Kaulla (\"Journ. med. Chem.\" vol. 8 (1965), page 164) in using human blood. The incubation time was 24 or 48 hours."}, "mouse [5]": {"system": "mouse", "conditions": "known compounds; cited from earlier work"}, "[6]": {"system": "bronchospasm against acetylcholine", "experiment": "Broncholytic effect at the narcotized guinea-pig, bronchospasm by acetylcholine", "format": "in vivo", "conditions": "Cavia porcellus, iv, 2 min, 2 min. i.p.", "description": "as §6, §7"}, "isolated trancheal chain": {"system": "isolated trancheal chain", "experiment": "Broncholytic effect at the isolated tracheal chain (isoprenaline reaction)", "description": "3. Broncholytic effect at the isolated trancheal chain\nThis test was performed according to J. C. Castillo and E. J. de Beer (\"J. Pharm. Ther.\" vol. 90 (1947), page 104)."}},
  "data": [
    {"molecule": "CC(=O)CCCCn1cnc2c1c(=O)[nH]c(=O)n2C", "note": "[Example 11, 3-methyl-7-(5-oxohexyl)-xanthine]", "values": [
      {"measurement": "Increase in cerebral blood circulation compared with ethylene-diamine-theophylline", "setting": "[1]", "result": "by several times superior"},
      {"measurement": "Increase in the cerebral blood circulation", "setting": "[1]", "result": "significant and permanent increase in the cerebral blood circulation"},
      {"measurement": "LD50", "setting": "[2]", "result": "1000 to 1500", "unit": "mg/kg"},
      {"measurement": "Compatibility compared with ethylene-diamine-theophylline", "setting": "mouse [3]", "result": "much more compatible"}
    ]},
    {"molecule": "CC(=O)CCCCn1c(=O)c2c(ncn2C)n(C)c1=O", "note": "[Sample 8, 1-(5-Oxohexyl)-3,7-dimethylxanthine, reference compound]", "values": [
      {"measurement": "Vascular dilatory action", "setting": "blood vascular system", "result": "vaso-dilatory effect"},
      {"measurement": "Cerebral blood perfusion half-life", "setting": "cerebral blood perfusion; 1 mg/kg i.v.", "result": 0.9, "unit": "min"},
      {"measurement": "Cerebral blood perfusion Δλ (change of blood perfusion)", "setting": "cerebral blood perfusion; 1 mg/kg i.v.", "result": "+0.44"},
      {"measurement": "Cerebral blood perfusion half-life", "setting": "cerebral blood perfusion; 5 mg/kg i.v.", "result": 2.4, "unit": "min"},
      {"measurement": "Cerebral blood perfusion Δλ (change of blood perfusion)", "setting": "cerebral blood perfusion; 5 mg/kg i.v.", "result": "+0.86"},
      {"measurement": "Cerebral blood perfusion half-life", "setting": "cerebral blood perfusion; 10 mg/kg i.v.", "result": 8.6, "unit": "min"},
      {"measurement": "Cerebral blood perfusion Δλ (change of blood perfusion)", "setting": "cerebral blood perfusion; 10 mg/kg i.v.", "result": "+1.15"},
      {"measurement": "change in vivo at 3 mg/kg", "setting": "[4]; 3 mg/kg i.v.", "result": -4, "unit": "%"},
      {"measurement": "change in vivo at 5 mg/kg", "setting": "[4]; 5 mg/kg i.v.", "result": -94, "unit": "%"},
      {"measurement": "change in vivo at 10 mg/kg", "setting": "[4]; 10 mg/kg i.v.", "result": -83, "unit": "%"},
      {"measurement": "change in vivo at 20 mg/kg", "setting": "[4]; 20 mg/kg i.v.", "result": -100, "unit": "%"},
      {"measurement": "Muscular blood perfusion half-life", "setting": "muscular blood perfusion; 1 mg/kg i.v.", "result": 1.10, "unit": "min"},
      {"measurement": "Muscular blood perfusion Δλ (change of blood perfusion)", "setting": "muscular blood perfusion; 1 mg/kg i.v.", "result": "+0.02"},
      {"measurement": "Muscular blood perfusion half-life", "setting": "muscular blood perfusion; 5 mg/kg i.v.", "result": 3.30, "unit": "min"},
      {"measurement": "Muscular blood perfusion Δλ (change of blood perfusion)", "setting": "muscular blood perfusion; 5 mg/kg i.v.", "result": "+0.03"},
      {"measurement": "Muscular blood perfusion half-life", "setting": "muscular blood perfusion; 10 mg/kg i.v.", "result": 2.80, "unit": "min"},
      {"measurement": "Muscular blood perfusion Δλ (change of blood perfusion)", "setting": "muscular blood perfusion; 10 mg/kg i.v.", "result": "+0.15"},
      {"measurement": "Muscular blood perfusion half-life", "setting": "muscular blood perfusion; 20 mg/kg i.v.", "result": "> 15", "unit": "min"},
      {"measurement": "Muscular blood perfusion Δλ (change of blood perfusion)", "setting": "muscular blood perfusion; 20 mg/kg i.v.", "result": "+1.38"},
      {"measurement": "Minimum concentration for partial lysis", "setting": "human blood; 24 hours incubation", "result": 100, "unit": "mmol"},
      {"measurement": "Minimum concentration for partial lysis", "setting": "human blood; 48 hours incubation (bracket)", "result": 50, "unit": "mmol"},
      {"measurement": "Toxicity", "setting": "mouse [5]", "result": "low toxicity"},
      {"measurement": "change in vivo at 3 mg/kg", "setting": "[6]; 3 mg/kg i.v.", "result": -15, "unit": "%"},
      {"measurement": "change in vivo at 10 mg/kg", "setting": "[6]; 10 mg/kg i.v.", "result": -41, "unit": "%"},
      {"measurement": "change in vivo at 20 mg/kg", "setting": "[6]; 20 mg/kg i.v.", "result": -72, "unit": "%"},
      {"measurement": "Inhibition of isoprenaline reaction in %", "setting": "isolated trancheal chain; concentration 3 × 10^-5", "result": 30, "unit": "%"},
      {"measurement": "Inhibition of isoprenaline reaction in %", "setting": "isolated trancheal chain; concentration 3 × 10^-6", "result": 0, "unit": "%"},
      {"measurement": "Inhibition of isoprenaline reaction in %", "setting": "isolated trancheal chain; concentration 10^-4", "result": 89, "unit": "%"},
      {"measurement": "Inhibition of isoprenaline reaction in %", "setting": "isolated trancheal chain; concentration 10^-5", "result": 5, "unit": "%"}
    ]}
  ]
}
